Assay results: paper PMC8509398, “Proteolytic Cleavage of Bioactive Peptides and Protease-Activated Receptors in Acute and Post-Colitis” (International Journal of Molecular Sciences, 2021)
Residues, ends and D or L forms follow the SMILES beside them. *: point of attachment. AMC = Cc1cc(=O)oc2cc(N*)ccc12; Boc = CC(C)(C)OC(=O)*

Columns and labels:
trypsin-3 = molecular target: T1, trypsin-3 (Homo sapiens, UniProt P35030); assay: Michaelis-Menten constant of fluorogenic substrates with trypsin-3; format: biochemical; set-up: made in house; settings: trypsin-3 0.015 nM, range of substrate concentrations, 37 °C, fluorescence measured kinetically 20 min, Michaelis-Menten fit, experiment repeated twice
T1 sequence (P35030 1-304): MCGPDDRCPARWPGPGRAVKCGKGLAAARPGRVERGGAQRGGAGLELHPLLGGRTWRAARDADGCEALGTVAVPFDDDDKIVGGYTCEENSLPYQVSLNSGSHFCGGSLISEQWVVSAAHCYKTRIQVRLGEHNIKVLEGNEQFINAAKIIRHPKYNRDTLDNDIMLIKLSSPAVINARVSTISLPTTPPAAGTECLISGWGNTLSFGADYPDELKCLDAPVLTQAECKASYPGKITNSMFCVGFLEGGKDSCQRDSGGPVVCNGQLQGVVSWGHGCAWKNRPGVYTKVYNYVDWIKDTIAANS
Procedure: (§1) Preheated substrate was added to colonic lysate to start the reaction. Fluorescence was measured for 20 min at 37 °C on a Tecan Infinite F200 pro microtiter plate reader. A calibration curve with AMC (Sigma-Aldrich, Saint Louis, MO, USA) was used to determine activities in units per liter, where a unit is defined as the amount of enzyme that catalyzes the conversion of one micromole of the substrate per minute in the specific experimental conditions described. Activities were normalized to protein concentration determined with Bradford to obtain activities in units per gram protein. Km for trypsin-1, trypsin-2, trypsin-3 and thrombin with Boc-QAR-AMC and Tos-GPR-AMC were also determined (Figure S5).
(§2) Figure S 5: Michaelis-Menten constant (Km) for (a) trypsin-1, (b) trypsin-2, (c) trypsin-3 and (d) thrombin with Boc-QAR-AMC and Tos -GPR-AMC. The Km was determined with Boc -QAR-AMC and Tos -GPR-AMC by adding trypsin-1 (0.015 nM), trypsin -2 (0.015 nM), trypsin -3 (0.015 nM) or thrombin (0.19 nM) to a range of substrate concentrations at 37° C. The fluorescence was measured kinetically for 20 min at 37° C on a Tecan F200 multi-plate reader. The results in RFU/min were recalculated by dividing them by the slope of a calibration curve with AMC (0.78 – 10 µM) to obtain results in µmol/L/min. […]

thrombin = thrombin (Homo sapiens, UniProt P00734); assay: Michaelis-Menten constant of fluorogenic substrates with thrombin; format: biochemical; set-up: thrombin (Sigma-Aldrich); purchased Sigma-Aldrich; settings: thrombin 0.19 nM, range of substrate concentrations, 37 °C, fluorescence measured kinetically 20 min, Michaelis-Menten fit, experiment repeated twice
Procedure: as §1, §2

pancreatic elastase I = pancreatic elastase I (Sus scrofa, UniProt P00772); assay: Cleavage of peptides by purified pancreatic elastase, MALDI-TOF/TOF; settings: 25 nM protease, 10 µM peptide, 37 °C, time points 2, 5, 10, 30 min
Chain of pancreatic elastase I (P00772 27-266): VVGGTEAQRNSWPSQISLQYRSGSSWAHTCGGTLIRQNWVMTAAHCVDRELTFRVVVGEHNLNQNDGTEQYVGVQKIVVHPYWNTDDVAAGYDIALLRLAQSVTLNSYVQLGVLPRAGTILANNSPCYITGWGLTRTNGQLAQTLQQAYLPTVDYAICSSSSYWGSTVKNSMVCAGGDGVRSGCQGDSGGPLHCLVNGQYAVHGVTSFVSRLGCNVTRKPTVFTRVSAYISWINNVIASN
Excerpt: Trypsin-like proteases included in the experiments are trypsin-1, -2 and -3, tryptase (Enzo LifeSciences), thrombin (Sigma-Aldrich) and cathepsin G (Sigma-Aldrich). Trypsin-1, -2 and -3 were produced as described by Koistinen et al. and Wu et al.. Two elastase-like enzymes, neutrophil elastase (Enzo LifeSciences, Farmingdale, NY, USA) and pancreatic elastase I (Sigma-Aldrich) were included as well. All enzymes were from human origin except for pancreatic elastase from porcine pancreas.
Reaction mixtures with purified enzymes were compiled in an identical way. […] Substance P was added as the standard peptide except for the reaction mixtures with substance P or bradykinin as the peptide of interest, where angiotensin II (Bachem) was added.
The TFA mixtures were thawed on ice and desalted using C18 zip-tips (Merck Millipore®, Burlington, MA, USA) with a capacity of 5 µg protein. Retained peptide fragments were eluted directly on the MALDI target plate. Next, 0.5 µL of a 2.5 mg/mL α-cyano-4-hydroxycinnamic acid (Sigma-Aldrich) matrix solution (in 70% acetonitrile, 0.1% TFA) was spotted on top of the sample. A 6-Peptide mixture Kit (AB Sciex, Framingham, MA, USA) containing bradykinin (2–9), angiotensin I, glu1-fibrinopeptide, ACTH (1–17), ACTH (18–39) and ACTH (7–38) was diluted with matrix and spotted on the plate as well.
MS and MS/MS data for peptide fragment identification were obtained with a MALDI-TOF/TOF instrument (4800 MALDI TOF/TOF™, Applied Biosystems, Waltham, MA, USA) and instrument parameters were set using 4000 Series Explorer™ software. MS spectra were recorded in positive reflector mode in a mass range from 500 to 4000 Da and laser intensity of 4500–4800 Hz. The spectra were calibrated using the calibration mixture mentioned above to a mass tolerance of 0.1 Da. MS/MS spectra were recorded with high-energy collision-induced dissociation and the laser intensity was increased by 10%.
Identified fragments were confirmed using the MS/MS spectra and mMass 5.5.0 by Martin Strohalm. The relative intensities of the fragments were calculated as the ratio of the intensity of the peak of interest to the intensity of the peak of the standard peptide.

[1] = tested on: T-cell transfer colitis mouse model; settings: treated mice; cited from earlier work
[2] = substrate: Cc1cc(=O)oc2cc(NC(=O)[C@H](CCCNC(=N)N)NC(=O)[C@H](C)NC(=O)[C@H](CCC(N)=O)NC(=O)OC(C)(C)C)ccc12; assay: Michaelis-Menten constant of fluorogenic substrates with trypsin-2; format: biochemical, human; settings: other: trypsin-2 0.015 nM, range of substrate concentrations, 37 °C, fluorescence measured kinetically 20 min, Michaelis-Menten fit, experiment repeated twice
Procedure: as §1, §2

**Q.** With `Cc1cc(=O)oc2cc(NC(=O)[C@H](CCCNC(=N)N)NC(=O)[C@H](C)NC(=O)[C@H](CCC(N)=O)NC(=O)OC(C)(C)C)ccc12` [Boc-QAR-AMC] (Boc-Gln-Ala-Arg-{AMC}) as the molecule, how does the Km (trypsin-3) read?
**A.** 4.6 ± 0.3 µM

**Q.** And the Km (thrombin)?
**A.** 2510 ± 285 µM

**Q.** For `CC(C)C[C@H](NC(=O)[C@H](Cc1ccccc1)NC(=O)CNC(=O)CNC(=O)[C@@H](N)Cc1ccc(O)cc1)C(=O)O` [L-enkephalin, Leu-enkephalin], which “Incubation time at which the first cleavage or decrease of the full-length peptide was observed, pancreatic elastase” value (pancreatic elastase I) is on record?
**A.** 30 min

**Q.** With `CSCC[C@H](NC(=O)[C@H](Cc1ccccc1)NC(=O)CNC(=O)CNC(=O)[C@@H](N)Cc1ccc(O)cc1)C(=O)O` [M-enkephalin, Met-enkephalin] as the molecule, how does the “Incubation time at which the first cleavage or decrease of the full-length peptide was observed, pancreatic elastase” value (pancreatic elastase I) read?
**A.** 30 min

**Q.** What does the source list for `CC(=O)Nc1ccc(OP(=O)(Oc2ccc(NC(C)=O)cc2)C(Cc2ccc(N=C(N)N)cc2)NC(=O)OCc2ccccc2)cc1.Cl` (stereo not shown) [UAMC-00050]?
**A.** Effect on intestinal inflammation and permeability [1]: ameliorated intestinal inflammation and permeability; Effect on mRNA expression of PAR4 [1]: decreased the mRNA expression of PAR4

B1: trypsin-2 (Homo sapiens) (protein)
chain: IVGGYICEENSVPYQVSLNSGYHFCGGSLISEQWVVSAGHCYKSRIQVRLGEHNIEVLEGNEQFINAAKIIRHPKYNSRTLDNDILLIKLSSPAVINSRVSAISLPTAPPAAGTESLISGWGNTLSSGADYPDELQCLDAPVLSQAECEASYPGKITNNMFCVGFLEGGKDSCQGDSGGPVVSNGELQGIVSWGYGCAQKNRPGVYTKVYNYVDWIKDTIAANS
notes: made in house
**Q.** For B1, which Km [2] is on record?
**A.** 11.8 ± 0.1 µM
